Assay results: patent US20180318473A1, “DRUGS WITH IMPROVED HYDROPHOBICITY FOR INCORPORATION IN MEDICAL DEVICES” (Abraxis BioScience, LLC, priority 2005, published 2018)
Values joined by “and” are separate entries in the source; they are usually repeats but may differ in a detail not shown here. Equal entries are not always repeated. Where two headings read alike, the source gives them in different places.

Legend:
[1] = Hydrophobicity by relative elution time from a C18 HPLC column; type: physicochemical; settings: for HPLC retention time (min) Condition 2: acetonitrile/water gradient 50:50 to 90:10, 1 mL/min; for HPLC retention time (min) Condition 2 / HPLC retention time (min) Condition 1: column temperature 35° C.; for HPLC retention time (min) Condition 1: acetonitrile / ammonium acetate buffer pH 6.4 with 5 mM TBAP gradient, 0.8 mL/min; for HPLC retention time (min) Condition 2, column temperature 70° C.: acetonitrile/water gradient, 1 mL/min, **column temperature was set at 70° C.
From the text: To increase the penetration and retention of a drug released from a device such as a stent into the vascular wall or wall of other vessel or tissue, several drugs were modified to increase their hydrophobicity. […] […] The longer the elution time, the more hydrophobic the compound.

MX-1 mammary tumor cells [2] = test: Cytotoxic activity on MX-1 mammary tumor cells in culture; settings: for IC50: read-out: Cytotoxicity on MX-1, IC50
albumin = albumin (Homo sapiens, UniProt P02768); test: Binding of compounds to albumin
MX-1 mammary tumor cells [3] = test system: MX-1 mammary tumor cells
[4] = MX-1 mammary tumor cells in culture, drug itself
[5] = smaller number indicates greater binding affinity, read-out: Albumin Binding, KD

Chain of albumin (P02768 25-609, species assumed): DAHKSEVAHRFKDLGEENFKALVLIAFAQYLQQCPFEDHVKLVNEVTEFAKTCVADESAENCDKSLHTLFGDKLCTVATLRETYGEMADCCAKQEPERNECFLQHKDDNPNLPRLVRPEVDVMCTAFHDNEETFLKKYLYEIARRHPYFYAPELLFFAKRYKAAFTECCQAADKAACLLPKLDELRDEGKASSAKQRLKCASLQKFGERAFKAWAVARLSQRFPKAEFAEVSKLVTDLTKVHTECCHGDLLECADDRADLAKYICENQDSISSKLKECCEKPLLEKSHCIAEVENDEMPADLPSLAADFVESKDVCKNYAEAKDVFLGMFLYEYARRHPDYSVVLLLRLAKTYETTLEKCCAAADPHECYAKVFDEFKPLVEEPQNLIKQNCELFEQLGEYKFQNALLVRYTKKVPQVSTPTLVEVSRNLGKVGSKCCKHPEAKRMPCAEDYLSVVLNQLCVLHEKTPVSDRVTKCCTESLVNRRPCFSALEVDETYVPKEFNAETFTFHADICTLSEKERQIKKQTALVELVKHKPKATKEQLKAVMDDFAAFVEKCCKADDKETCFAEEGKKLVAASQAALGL

Compound	HPLC retention time (min) Condition 2 [1]	IC50 (MX-1 mammary tumor cells [2]; [4]) [µM]	HPLC retention time (min) Condition 1 [1] [min]	other results
CCc1c2c(nc3ccc(OC(=O)CCCC(C)CC)cc13)-c1cc3c(c(=O)n1C2)COC(=O)[C@@]3(CC)OC(=O)CCCC(C)CC (some centres unmarked) [Compound 21]	40.2 min	295		
CCC1(OC(=O)C(C)C)C(=O)OCc2c1cc1n(c2=O)Cc2cc3cc(OC(=O)C(C)C)ccc3nc2-1 (centres unmarked) [Compound 9]		23	22.0	
COc1cc2c(c(OC)c1OC)-c1ccc(SC)c(=O)cc1[C@@H](NC(=O)C1CCCC(C(=O)N[C@H]3CCc4cc(OC)c(OC)c(OC)c4-c4ccc(SC)c(=O)cc43)C1)CC2 (some centres unmarked) [Compound 27]				Kd (albumin): 52 µM
CC[C@@]1(O)C(=O)OCc2c1cc1n(c2=O)Cc2cc3cc(O)ccc3nc2-1 [Compound 32]	1.9 min		6.1	Kd (albumin): 1200 µM; IC50 (MX-1 mammary tumor cells [2]): 13 µM
CCC1(OC(=O)c2ccccc2)C(=O)OCc2c1cc1n(c2=O)Cc2cc3cc(OC(=O)c4ccccc4)ccc3nc2-1 (centres unmarked) [Compound 14]		740	22.9	
CCc1c2c(nc3ccc(O)cc13)-c1cc3c(c(=O)n1C2)COC(=O)[C@]3(O)CC [Compound 6]	2.2 min	267	7.8	Kd (albumin; [5]): 484 µM
CC(=O)O[C@H]1C(=O)[C@@]2(C)[C@H]([C@H](OC(=O)c3ccccc3)[C@]3(O)C[C@H](OC(=O)[C@H](O)[C@@H](NC(=O)c4ccccc4)c4ccccc4)C(C)=C1C3(C)C)[C@]1(OC(C)=O)CO[C@@H]1C[C@@H]2O [Paclitaxel, reference compound]	10.5 min			Kd (albumin; [5]): 39.8 µM
CCC1(OC(=O)CN)C(=O)OCc2c1cc1n(c2=O)Cc2cc3cc(OC(=O)CN)ccc3nc2-1 (centres unmarked) [Compound 13]		242	6.1	
CCC1(OC(=O)CNC(=O)OC(C)(C)C)C(=O)OCc2c1cc1n(c2=O)Cc2cc3cc(OC(=O)CNC(=O)OC(C)(C)C)ccc3nc2-1 (centres unmarked) [Compound 11]		221	20.9	
C=CCNC1=C2C[C@@H](C)C[C@H](OC)[C@H](O)[C@@H](C)/C=C(\C)[C@H](OC(N)=O)[C@@H](OC)/C=C\C=C(/C)C(=O)NC(=CC1=O)C2=O [Compound 17AAG, 17AAG, reference compound]	14.9 min	3		
COc1cc2c(c(OC)c1OC)-c1ccc(SC)c(=O)cc1[C@@H](NC(=O)c1cncc(C(=O)N[C@H]3CCc4cc(OC)c(OC)c(OC)c4-c4ccc(SC)c(=O)cc43)c1)CC2 [Compound 26]				Kd (albumin): 28 µM; IC50 (MX-1 mammary tumor cells [2]): 361 µM
CCCCCCCCCCCCCCCCCC(=O)Oc1ccc2nc3c(c(CC)c2c1)Cn1c-3cc2c(c1=O)COC(=O)[C@@]2(CC)OC(=O)CCCCCCCCCCCCCCCCC [Compound 20]	30.6 min			Cytotoxicity on MX-1, IC50 (MX-1 mammary tumor cells [2]; [4]): Inactive
CC(=O)OC1C(=O)C2(C)C(O)CC3OCC3(OC(C)=O)C2C(OC(=O)c2ccccc2)C2(O)CC(OC(=O)C(OC(=O)c3ccccc3)C(NC(=O)c3ccccc3)c3ccccc3)C(C)=C1C2(C)C (centres unmarked) [Compound 1]		30		Kd (albumin; [5]): 103 µM
CO[C@H]1C[C@@H]2CC[C@@H](C)[C@@](O)(O2)C(=O)C(=O)N2CCCC[C@H]2C(=O)O[C@H]([C@H](C)C[C@@H]2CC[C@@H](O)[C@H](OC)C2)CC(=O)[C@H](C)/C=C(\C)[C@@H](O)[C@@H](OC)C(=O)[C@H](C)C[C@H](C)/C=C/C=C/C=C/1C [Rapamycin, reference compound]		27		Kd (albumin; [5]): 102 µM
COC1C=CC=C(C)C(=O)NC2=CC(=O)C(N3CC3C)=C(CC(C)CC(OC)C(O)C(C)C=C(C)C1OC(N)=O)C2=O (centres unmarked) [Compound 30, 17-METHYLAZIRIDINYL-17-DEMETHOXYGELDANAMYCIN]	11.1 min and 11.6 min			IC50 (MX-1 mammary tumor cells [3]): 0.3 µM
COc1cc2c(c(OC)c1OC)-c1ccc(SC)c(=O)cc1[C@@H](NC(=O)CCNC(=O)N[C@H]1CCc3cc(OC)c(OC)c(OC)c3-c3ccc(SC)c(=O)cc31)CC2 [Compound 24]				Kd (albumin): 109 µM; IC50 (MX-1 mammary tumor cells [2]): 37 µM

Compound	HPLC retention time (min) Condition 2 [1]	IC50 (MX-1 mammary tumor cells [2]; [4]) [µM]	HPLC retention time (min) Condition 1 [1] [min]	other results
CC(=O)OC12COC1CC(O)C1(C)C(=O)C(O)C3=C(C)C(OC(=O)C(OC(=O)c4ccccc4)C(NC(=O)OC(C)(C)C)c4ccccc4)CC(O)(C(OC(=O)c4ccccc4)C21)C3(C)C (centres unmarked) [Compound 2, 2′ BENZOYL DOCETAXEL]				Kd (albumin; [5]): 8.8 µM; IC50 (MX-1 mammary tumor cells [2]): 38 µM
CCCCCC(=O)Oc1ccc2nc3c(cc2c1)Cn1c-3cc2c(c1=O)COC(=O)[C@@]2(CC)OC(=O)CCCCC [Compound 10, CAMPTOTHECIN 10,20-DI O HEXONATE]		8	25.3	
COc1cc2c(c(OC)c1OC)-c1ccc(SC)c(=O)cc1[C@@H](NC(=O)CCCCCCCCC(=O)N[C@H]1CCc3cc(OC)c(OC)c(OC)c3-c3ccc(SC)c(=O)cc31)CC2 [Compound 25]				Kd (albumin): 30 µM; IC50 (MX-1 mammary tumor cells [2]): 155 µM
CCC(=O)Oc1ccc2nc3c(cc2c1)Cn1c-3cc2c(c1=O)COC(=O)C2(CC)OC(=O)CC (centres unmarked) [Compound 7]		45	19.8	HPLC retention time (min) Condition 2, column temperature 70° C. [1]: 6.1** min
CCCCCCCCCC(=O)Oc1ccc2nc3c(c(CC)c2c1)Cn1c-3cc2c(c1=O)COC(=O)[C@@]2(CC)OC(=O)CCCCCCCCC [Compound 17]	31.2 min	2000		
CC(=O)O[C@@]12CO[C@@H]1C[C@H](O)[C@@]1(C)C(=O)[C@H](O)C3=C(C)[C@@H](OC(=O)[C@H](O)[C@@H](NC(=O)OC(C)(C)C)c4ccccc4)C[C@@](O)([C@@H](OC(=O)c4ccccc4)[C@H]21)C3(C)C [Docetaxel, reference compound]	9.0 min			Kd (albumin; [5]): 5.45 µM
CCCCCC(=O)Oc1ccc2nc3c(cc2c1)Cn1c-3cc2c(c1=O)COC(=O)C2(CC)OC(=O)CCCCC (centres unmarked) [Compound 16]		4		
Benzoyl rapamycin [Compound 23]				HPLC retention time (min) Condition 2, column temperature 70° C. [1]: 32.6** min
CCC1(OC(=O)COC)C(=O)OCc2c1cc1n(c2=O)Cc2cc3cc(OC(=O)COC)ccc3nc2-1 (centres unmarked) [Compound 12]		372	14.1	
COC1=C2C[C@@H](C)C[C@H](OC)[C@H](O)[C@@H](C)/C=C(\C)[C@H](OC(N)=O)[C@@H](OC)/C=C\C=C(/C)C(=O)NC(=CC1=O)C2=O [Geldanamycin, reference compound]	10.8 min	0.5		
CCC(=O)Oc1ccc2nc3c(c(CC)c2c1)Cn1c-3cc2c(c1=O)COC(=O)[C@@]2(CC)OC(=O)CC [Compound 15]		28	20.8	HPLC retention time (min) Condition 2, column temperature 70° C. [1]: 9.3** min
CCCCCCCCCCCC(=O)Oc1ccc2nc3c(c(CC)c2c1)Cn1c-3cc2c(c1=O)COC(=O)[C@@]2(CC)OC(=O)CCCCCCCCCCC [Compound 19]	31.2 min			Cytotoxicity on MX-1, IC50 (MX-1 mammary tumor cells [2]; [4]): Inactive
CCCCCCCCCCCCCC(=O)Oc1ccc2nc3c(c(CC)c2c1)Cn1c-3cc2c(c1=O)COC(=O)[C@@]2(CC)OC(=O)CCCCCCCCCCCCC [Compound 18]	31.2 min			Cytotoxicity on MX-1, IC50 (MX-1 mammary tumor cells [2]; [4]): Inactive
CCCC(=O)Oc1ccc2nc3c(cc2c1)Cn1c-3cc2c(c1=O)COC(=O)[C@@]2(CC)OC(=O)CCC [Compound 8]		152	21.9	
CCCCCCCCCCCCCCCC(=O)Oc1ccc2nc3c(cc2c1)Cn1c-3cc2c(c1=O)COC(=O)C2(CC)OC(=O)CCCCCCCCCCCCCCC (centres unmarked) [Compound 22]	30.5 min			Cytotoxicity on MX-1, IC50 (MX-1 mammary tumor cells [2]; [4]): Inactive
